This assay has as its target T1, human vasopressin V2 receptor subtype (Homo sapiens, UniProt P30518).
T1 construct: host or cells: CHO cells, stably transfected (pZeoSV vector)
The experiment in a line: Vasopressin binding in CHO cell membranes expressing human vasopressin V2 subtype receptors ([3H]arginine vasopressin radioligand binding). The following applies: 100 nM. The method, then:
Vasopressin Binding in Chinese Hamster Ovary Cell Membranes Expressing Human Vasopressin V2 Subtype Receptors
Chinese Hamster Ovary (CHO) cells stably transfected with the human V2 subtype receptors were obtained from M. Thibonnier, Case Western Reserve University School of Medicine, Cleveland, Ohio.
The trypsin is removed by aspiration and the cells dislodged by tapping. Cell Culture medium (e.g. 30 mL for 1:30 split) is immediately added and mixed well to inactivate trypsin. 1 mL of detached cells is added to new culture flasks containing fresh Cell Culture medium (e.g. into 25 mL per T-150 flask), and mixed gently. The cells are incubated at 37° C. in 5% CO2. The medium is changed at 3 to 4 day interval (or as appropriate). […] All steps are done under sterile conditions.
The cells are washed twice gently with Hank's Balanced Salt solution (e.g. use 10 mL per T-150 flask). […] The contents are transferred to centrifuge tubes (50 mL) kept in ice bath. All subsequent steps are done at 4° C. The tubes are centrifuged at 300×g for 15 min (1380 rpm on SORVAL, Model RT6000D, using the rotor for 50 mL tubes). The supernatant is discarded and the cells suspended in homogenizing buffer(10 mM Tris-HCl containing 0.25 M sucrose and 1 mM EDTA, pH 7.4) ensuring that the volume of the buffer is about ten times the volume of the cell pellet. The cells are pooled into a centrifuge tube (50 mL) and homogenized with Polytron at setting 6 for 10 sec. The homogenate is transferred into a Potter-Elvjehm homogenizer and homogenized with 3 strokes. The homogenate is centrifuged at 1500×g for 60 min at 4° C. (3100 rpm using SORVAL, model RT6000D, using the rotor for 50 mL tubes). The pellet is discarded. The supernatant is centrifuged at 100,000×g for 60 min. at 4° C. (Beckman L8-80M ultracentrifuge; spin at 37,500 rpm with rotor type 70 Ti for 50 mL tubes; 38,000 rpm with type 80Ti for 15 mL tubes; or 35,800 rpm with rotor type 45Ti). The supernantant is discarded and the pellet suspended in 3 to 4 mL of Tris buffer (50 mM TRIS-HCl, pH 7.4). The protein content is estimated by the Bradford or Lowry method. The volume of the membrane suspension is adjusted with the membrane buffer (50 mM Tris-HCl containing 0.1% BSA and 0.1 mM PMSF) to give 3.0 mg/mL (or as appropriate) of protein. The membranes are aliquoted and stored at −70° C.
In wells of a 96-well format microtiter plate, is added 90, 110 or 130 μL (to make up a final volume of 200 μL) of assay buffer containing 50 mM of Tris-HCl (pH 7.4), […], 1 mg % aprotinin, 1 mg % leupeptin, 2 mg % 1,10-phenanthroline, 10 mg % trypsin inhibitor, and 0.1 mM PMSF. The inhibitors are added on the day of the experiment. The components are mixed at room temperature, and then kept in ice bath following adjustment of the pH to 7.4. […] For vasopressin and other peptide ligands 20 μL of 50% DMSO is added and the assay buffer volume is adjusted accordingly. To each well is added 50 μL of frozen membrane suspension thawed immediately prior to use and diluted in assay buffer to the required concentration (equivalent to 25 to 50 μg of protein/well as needed). 20 μL of 8 nM [^3H]arginine vasopressin ligand in the assay buffer, prepared just before use is added and incubated at room temperature for 60 min. shaking the plate on a mechanical shaker for the first 15 min. The incubation is stopped by rapid filtration of the plate contents followed by wash with ice-cold buffer (50 mM Tris-HCl, pH 7.4) using a cell harvester (Tomtek and Printed filtermat-B filter paper). The filter paper is thoroughly dried (7–12 min. in a microwave oven) and impregnated with MeltiLex B/H melt-on scintillation wax sheets and the radioactivity counted in a betaplate scintillation counter.
Binding data is either reported as percent inhibition at a certain concentration or if an IC50 was calculated, as a nanomolar concentration.
T1 sequence (P30518 whole entry): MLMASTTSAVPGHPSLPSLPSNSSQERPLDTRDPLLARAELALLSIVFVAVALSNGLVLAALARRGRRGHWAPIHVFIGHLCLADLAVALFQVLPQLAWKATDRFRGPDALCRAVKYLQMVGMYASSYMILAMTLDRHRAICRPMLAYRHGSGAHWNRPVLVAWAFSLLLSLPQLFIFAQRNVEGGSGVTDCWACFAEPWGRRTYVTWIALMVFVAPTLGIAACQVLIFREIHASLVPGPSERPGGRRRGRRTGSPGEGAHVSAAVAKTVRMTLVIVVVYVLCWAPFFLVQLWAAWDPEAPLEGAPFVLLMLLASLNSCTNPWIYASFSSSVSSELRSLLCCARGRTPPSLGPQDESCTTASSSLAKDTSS
In the case of `COc1ccccc1-c1ccc(C(=O)N2Cc3ccc(C(=O)NCc4ccccn4)n3Cc3ccccc32)cc1C` [Example 24, 10-[(2′-Methoxy-2-methyl-[1,1′-biphenyl]-4-yl)carbonyl]-N-(2-pyridinylmethyl)-10,11-dihydro-5H-pyrrolo[2,1-c][1,4]benzodiazepine-3-carboxamide], 0.1 µM produced 26% inhibition.
`COc1cccc(-c2ccc(C(=O)N3Cc4ccc(C(=O)NCc5ccccn5)n4Cc4ccccc43)cc2C)c1` [Example 25, 10-[(3′-Methoxy-2-methyl-[1,1′-biphenyl]-4-yl)carbonyl]-N-(2-pyridinylmethyl)-10,11-dihydro-5H-pyrrolo[2,1-c][1,4]benzodiazepine-3-carboxamide]: testing at 0.1 µM gave an inhibition of 33%.
With `COc1ccccc1-c1ccc(C(=O)N2Cc3ccc(C(=O)NCc4ccccn4)n3Cc3ccccc32)cc1` [Example 26, 10-[(2′-Methoxy-[1,1′-biphenyl]-4-yl)carbonyl]-N-(2-pyridinylmethyl)-10,11-dihydro-5H-pyrrolo[2,1-c][1,4]benzodiazepine-3-carboxamide] the figure was 23%.
With `Cc1ccccc1-c1ccc(C(=O)N2Cc3ccc(C(=O)NCc4ccccn4)n3Cc3ccccc32)cc1` [Example 27, 10-[(2′-Methyl-[1,1′-biphenyl]-4-yl)carbonyl]-N-(2-pyridinylmethyl)-10,11-dihydro-5H-pyrrolo[2,1-c][1,4]benzodiazepine-3-carboxamide] the figure was 16%; with `COc1cc(C(=O)N2Cc3ccc(C(=O)NCc4ccccn4)n3Cc3ccccc32)ccc1-c1ccccc1C` [Example 28, 10-[(2-Methoxy-2′-methyl-[1,1′-biphenyl]-4-yl)carbonyl]-N-(2-pyridinylmethyl)-10,11-dihydro-5H-pyrrolo[2,1-c][1,4]benzodiazepine-3-carboxamide], 20%.
The figure for `COc1cc(-c2ccccc2C)c(Cl)cc1C(=O)N1Cc2ccc(C(=O)NCc3ccccn3)n2Cc2ccccc21` [Example 29, 10-[(6-Chloro-3-methoxy-2′-methyl-[1,1′-biphenyl]-4-yl)carbonyl]-N-(2-pyridinylmethyl)-10,11-dihydro-5H-pyrrolo[2,1-c][1,4]benzodiazepine-3-carboxamide] is 12%; for `COc1cccc(-c2cc(OC)c(C(=O)N3Cc4ccc(C(=O)NCc5ccccn5)n4Cc4ccccc43)cc2Cl)c1` [Example 30, 10-[(6-Chloro-3,3′-dimethoxy-[1,1′-biphenyl]-4-yl)carbonyl]-N-(2-pyridinylmethyl)-10,11-dihydro-5H-pyrrolo[2,1-c][1,4]benzodiazepine-3-carboxamide] it is 14%.
For `COc1cc(C(=O)N2Cc3ccc(C(=O)NCc4ccccn4)n3Cc3ccccc32)ccc1-c1cccc2ccccc12` [Example 31, 10-[3-Methoxy-4-(naphthalen-1-yl)benzoyl]-N-(2-pyridinylmethyl)-10,11-dihydro-5H-pyrrolo[2,1-c][1,4]benzodiazepine-3-carboxamide], at 0.1 µM the inhibition was 31%.
With `COc1ccccc1-c1ccc(C(=O)N2Cc3ccc(C(=O)NCc4ccccn4)n3Cc3ccccc32)cc1OC` [Example 32, 10-[(2,2′-Dimethoxy-[1,1′-biphenyl]-4-yl)carbonyl]-N-(2-pyridinylmethyl)-10,11-dihydro-5H-pyrrolo[2,1-c][1,4]benzodiazepine-3-carboxamide] the figure was 21%; with `COc1cccc(-c2ccc(C(=O)N3Cc4ccc(C(=O)NCc5ccccn5)n4Cc4ccccc43)cc2OC)c1` [Example 33, 10-[(2,3′-Dimethoxy-[1,1′-biphenyl]-4-yl)carbonyl]-N-(2-pyridinylmethyl)-10,11-dihydro-5H-pyrrolo[2,1-c][1,4]benzodiazepine-3-carboxamide], 21%; with `O=C(NCc1ccccn1)c1ccc2n1Cc1ccccc1N(C(=O)c1ccc(-c3cccc4ccccc34)cc1Cl)C2` [Example 34, 10-[2-Chloro-4-(naphthalen-1-yl)benzoyl]-N-(2-pyridinylmethyl)-10,11-dihydro-5H-pyrrolo[2,1-c][1,4]benzodiazepine-3-carboxamide], 5%.
With `Cc1cc(C(=O)N2Cc3ccc(C(=O)NCc4ccccn4)n3Cc3ccccc32)ccc1-c1ccccc1C(F)(F)F` [Example 35, 10-{[2-Methyl-2′-trifluoromethyl-[1,1′-biphenyl]-4-yl]carbonyl}-N-(2-pyridinylmethyl)-10,11-dihydro-5H-pyrrolo[2,1-c][1,4]benzodiazepine-3-carboxamide] the figure was 14%.
The figure for `COc1ccccc1-c1ccc(C(=O)N2Cc3ccc(C(=O)NCc4cccnc4)n3Cc3ccccc32)cc1C` [Example 36, 10-[(2′-Methoxy-2-methyl-[1,1′-biphenyl]-4-yl)carbonyl]-N-(3-pyridinylmethyl)-10,11-dihydro-5H-pyrrolo[2,1-c][1,4]benzodiazepine-3-carboxamide] is 24%; for `Cc1ccccc1-c1ccc(C(=O)N2Cc3ccc(C(=O)NCc4cccnc4)n3Cc3ccccc32)cc1C` [Example 37, 10-[(2,2′-Dimethyl-[1,1′-biphenyl]-4-yl)carbonyl]-N-(3-pyridinylmethyl)-10,11-dihydro-5H-pyrrolo[2,1-c][1,4]benzodiazepine-3-carboxamide] it is 7%; for `COc1cccc(-c2ccc(C(=O)N3Cc4ccc(C(=O)NCc5cccnc5)n4Cc4ccccc43)cc2C)c1` [Example 38, 10-[(3′-Methoxy-2-methyl-[1,1′-biphenyl]-4-yl)carbonyl]-N-(3-pyridinylmethyl)-10,11-dihydro-5H-pyrrolo[2,1-c][1,4]benzodiazepine-3-carboxamide] it is 21%.
Regarding `COc1ccccc1-c1ccc(C(=O)N2Cc3ccc(C(=O)NCc4cccnc4)n3Cc3ccccc32)cc1` [Example 39, 10-[(2′-Methoxy-[1,1′-biphenyl]-4-yl)carbonyl]-N-(3-pyridinylmethyl)-10,11-dihydro-5H-pyrrolo[2,1-c][1,4]benzodiazepine-3-carboxamide], the inhibition – broadly, the drop in the measured response relative to a control, in per cent – at 0.1 µM is 11%.
The figure for `Cc1ccccc1-c1ccc(C(=O)N2Cc3ccc(C(=O)NCc4cccnc4)n3Cc3ccccc32)cc1` [Example 40, 10-[(2′-Methyl-[1,1′-biphenyl]-4-yl)carbonyl]-N-(3-pyridinylmethyl)-10,11-dihydro-5H-pyrrolo[2,1-c][1,4]benzodiazepine-3-carboxamide] is 11%; for `COc1cc(C(=O)N2Cc3ccc(C(=O)NCc4cccnc4)n3Cc3ccccc32)ccc1-c1ccccc1C` [Example 41, 10-[(2-Methoxy-2′-methyl-[1,1′-biphenyl]-4-yl)carbonyl]-N-(3-pyridinylmethyl)-10,11-dihydro-5H-pyrrolo[2,1-c][1,4]benzodiazepine-3-carboxamide] it is 16%.
With `COc1cc(-c2ccccc2C)c(Cl)cc1C(=O)N1Cc2ccc(C(=O)NCc3cccnc3)n2Cc2ccccc21` [Example 42, 10-[(6-Chloro-3-methoxy-2′-methyl-[1,1′-biphenyl]-4-yl)carbonyl]-N-(3-pyridinylmethyl)-10,11-dihydro-5H-pyrrolo[2,1-c][1,4]benzodiazepine-3-carboxamide] the figure was 8%.

Source of the values: patent US7064120B2, “Tricyclic pyridyl carboxamides and derivatives thereof tocolytic oxytocin receptor antagonists” (Wyeth, priority 2001, dated 2006).
